Assay results: US9359338B2, “Cyclopropanecarboxamido-substitute aromatic compounds as anti-tumor agents” (Crown Bioscience Inc. (Taiwan), priority 2012, dated 2016)
Where two headings read alike, the source gives them in different places.

Tests used:
pERK in MDA-MB-231 cells = experiment: Inhibitory activity at pERK (In Cell Western, MDA-MB-231 cells); format: cell-based; settings: Homo sapiens
Protocol: Inhibitory Activity of Compounds at pERK
When the cells reach 80% confluency, collect cells by trypsinization and centrifugation at 800 rpm for 3 minutes. Resuspend cells with appropriate volume of medium and count cell numbers. Adjust cell concentration to 70000 cells/mL, and split 100 μL cell suspension per well into 96-well plates. Transfer the plates into cell culture incubator (37° C., 5% CO2) and incubate cells overnight. Discard the medium, wash with PBS once, Prepare compound serial dilutions in culture medium with total 8 compound concentrations at 3-fold serial dilutions (the final top concentration starts from 30 μM). Dispense 75 μL DMEM medium (with 0.1% BSA) and 25 μL of each test compound dilution into corresponding wells with DMSO at 0.3% final concentration. Continue incubating cells in cell culture incubator for additional 2 hrs at 37° C., 5% CO2. Discard culture medium, and wash cells once with PBS. Add 100 μL of 4% formaldehyde solution to each well and fix for 20 min. Discard the formaldehyde, then add 100 μL ice-cold 100% methanol at 4° C. for 20 min. Discard methanol, wash with PBS three times. Add to each well 100 μL of 2% BSA solution, seal for 30 min at room temperature. Discard the BSA solution, add to each well 50 μL of the 1st antibody solution (prepared with 2% BSA, 1:250 dilution), incubate at 4° C. overnight. Discard the 1^St antibody solution, wash with PBS four times. Add to each well […] the 2nd antibody solution (prepared with 1% BSA, 1:1000 dilution), incubate at room temperature for 1 hr. Discard the 2nd antibody solution, wash with PBS four times, add to each well 100 μL PI solution (1.5 μM), incubate at room temperature for 30 min. Use Acumen (TPP) to measure the fluorescence. • [Samples]: Compounds in the examples and sorafenib (positive control) • [Data Analysis]: Use CBIS data analysis software to calculate IC50 values

PLC-PRF-5 cells = experiment: Inhibition of proliferation of PLC-PRF-5 cells (ATPlite); format: cell-based; settings: Homo sapiens
Excerpt: Inhibitory Activity of Compounds to the Proliferation of PLC-PRF-5 Cells
• [experimental Method]: Use PerKinElmer's ATPlite™ Luminescence ATP Detection Assay System to evaluate the inhibitory activity of compounds to the proliferation of PLC-PRF-5 cells. • [Instruments]: ENVISION plate reader (PerKinElmer) and centrifuge (Thermo Scientific, Sorvall ST16R) • [material]: PLC-PRF-5 cells (ATCC), 96-well plate (Nunc, #165305), DMEM medium (Gibco, #11965-092), PBS (Invitrogen, #10010023), fetal bovine serum (Gibco, #16000044), DMSO (Sigma, #D2650), ATPlite™ Luminescence ATP Detection Assay System (PerkinElmer, #6016949), purified water (Millipore, type: Milli-Q). • [Protocol]: Grow PLC-PRF-5 cells in DMEM supplemented with 10% FBS. When the cells reach 80% confluency, collect cells by trypsinization and centrifugation at 800 rpm for 3 min. Resuspend cells with appropriate volume of medium and count cell numbers. Adjust cell concentration to 50000 cells/mL, and split 160 μL cell suspension per well into 96-well plates. Transfer the plates into cell culture incubator (37° C., 5% CO2) and incubate cells for 2 hrs. Prepare compound serial dilutions in culture medium with total 8 compound concentrations at 3-fold serial dilutions (the final top concentration starts from 30 μM). Dispense 40 μL of each test compound dilution into corresponding wells with DMSO at 0.3% final concentration. Continue incubating cells in cell culture incubator for additional 96 hrs at 37° C., 5% CO2. Discard culture medium, and wash cells once with PBS. Add 50 μL cell lysis buffer per well and shake plates for 5 min at room temperature to ensure complete lysis of cells. Then add 50 μL of substrate solution and shake plates for 1 min at room temperature. Allow the plates to incubate at room temperature for 5 min, followed by recording the luminescence signals using Envision, and subsequent data analysis. • [Samples]: Compounds in the examples and Sorafenib (positive control) • [Data analysis]: Use CBIS data analysis software to calculate IC50 values

KDR kinase (790-1356 AA) = KDR kinase (790-1356 AA) (Homo sapiens (Human), UniProt P35968); experiment: Inhibitory activity at KDR kinase (Lance Ultra Ulight-TK assay); format: biochemical
Protocol: Inhibitory Activity of Compounds at KDR Kinase
• [Experimental method]: Use Lance@Ultra Ulight™-TK assay kit from PerKinElmer to evaluate the inhibitory activity of compounds at KDR kinase. • [Instrument]: PerKinElmer's ENVISION plate reader • [Materials]: Optiplate-384 well plate (PerKinElmer), kinase buffer (50 mM Hepes pH7.5, 0.25 mM EGTA, 2 mM DTT, 0.01% Tween 20, 10 mM Mg^2+, 0.5 mM Mn^2+), KDR kinase (790-1356 AA, Crown Bioscience), KDR kinase substrate (PerKinElmer catalogue # TRF0127-M), Lance@Eu-W1024-anti-phosphotyrosine (PT66) (PerKinElmer, catalogue #AD0068), ATP (Invitrogen), DMSO (Sigma, catalogue #34869), purified water (Millipore, type: Milli-Q). • [Study conditions]: Mix KDR (final concentration: 20 nM) and compound (final DMSO: 0.5%), pre-incubate for 20 min at 30° C.; then add ATP (final concentration: 90 μM) and the substrate (final concentration […]). React for 2 hrs at 30° C. After the reaction, add antibody and reaction for 60 min at 30° C. Read the plate (615 nm, 665 nm), calculate the ratio of the value at 665 nm vs 615 nm and analyze the data. • [Samples]: Compounds in the examples and Sorafenib (positive control) • [Data Analysis]: Use CBIS data analysis software to calculate IC50 values

[1] = MDA-MB-231, MDA-MB-231 cells, read-out: MDA-MB-231 pERK IC50
[2] = PLC-PRF-5, PLC-PRF-5 cells, read-out: PLC-PRF-5 cell proliferation IC50

Sequence of KDR kinase (790-1356 AA) (P35968 790-1356): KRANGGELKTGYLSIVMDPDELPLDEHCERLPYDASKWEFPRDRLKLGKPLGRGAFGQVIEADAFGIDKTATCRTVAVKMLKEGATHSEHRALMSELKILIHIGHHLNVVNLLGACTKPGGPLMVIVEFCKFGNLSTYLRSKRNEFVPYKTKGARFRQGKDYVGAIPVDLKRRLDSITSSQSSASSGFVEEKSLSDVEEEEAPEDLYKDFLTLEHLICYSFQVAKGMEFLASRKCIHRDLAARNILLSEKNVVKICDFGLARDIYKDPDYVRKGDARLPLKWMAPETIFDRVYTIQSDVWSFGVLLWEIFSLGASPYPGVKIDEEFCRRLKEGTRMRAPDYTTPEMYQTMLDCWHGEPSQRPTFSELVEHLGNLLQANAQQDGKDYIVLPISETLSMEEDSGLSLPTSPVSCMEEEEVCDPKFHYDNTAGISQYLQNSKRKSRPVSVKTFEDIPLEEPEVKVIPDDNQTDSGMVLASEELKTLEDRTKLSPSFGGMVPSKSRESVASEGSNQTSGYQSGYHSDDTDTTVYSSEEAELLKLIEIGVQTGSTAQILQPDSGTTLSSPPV

Row | Compound | IC50 (pERK in MDA-MB-231 cells; [1]) [nM] | IC50 (PLC-PRF-5 cells; [2]) [µM] | IC50 (KDR kinase (790-1356 AA)) [nM] | IC50 (pERK in MDA-MB-231 cells; MDA-MB-231, read-out: MDA-MB-231 pERK IC50) [nM] | IC50 (PLC-PRF-5 cells; PLC-PRF-5, read-out: PLC-PRF-5 cell proliferation IC50) [µM]
1 | CCOC(=O)C(C)(C)CNc1cc(NC(=O)Nc2ccc(Oc3ccnc(NC(=O)C4CC4)c3)c(F)c2)cc(C(F)(F)F)c1 [Exe. 050] | 110 | 2.23 | 12.8 | – | –
2 | O=C(Nc1cc(N2CCN(CCF)CC2)cc(C(F)(F)F)c1)Nc1ccc(Oc2ccnc(NC(=O)C3CC3)c2)c(F)c1 [Exe. 053] | 65.1 | 0.686 | 13 | – | –
3 | CC(C)N1CCN(c2cc(NC(=O)Nc3ccc(Oc4ccnc(NC(=O)C5CC5)c4)c(F)c3)cc(C(F)(F)F)c2)CC1 [Exe. 054] | 97.6 | 0.34 | 15.3 | – | –
4 | CCN1CCN(c2cc(NC(=O)Nc3ccc(Oc4ccnc(NC(=O)C5CC5)c4)c(F)c3)cc(C(F)(F)F)c2)CC1 [Exe. 055] | 284 | 0.42 | 14.5 | – | –
5 | O=C(Nc1cccc(C2CC2)c1)Nc1ccc(Oc2ccnc(NC(=O)C3CC3)c2)c(F)c1 [Exe. 057] | 85 | 0.25 | 12 | – | –
6 | O=C(Nc1cc(C2CCN(C3CC3)CC2)cc(C(F)(F)F)c1)Nc1ccc(Oc2ccnc(NC(=O)C3CC3)c2)c(F)c1 [Exe. 060] | 324 | 1.51 | 34.3 | – | –
7 | CN1C(=O)C2(CC2)c2cc(NC(=O)Nc3ccc(Oc4ccnc(NC(=O)C5CC5)c4)cc3)ccc21 [Exe. 066] | 16 | 2.5 | 8 | – | –
8 | CC(N)c1cc(NC(=O)Nc2ccc(Oc3ccnc(NC(=O)C4CC4)c3)c(F)c2)cc(C(F)(F)F)c1 (stereo not drawn) [Exe. 068] | 8.4 | 0.325 | 15.7 | – | –
9 | O=C(Nc1cc(NC2CCNCC2)cc(C(F)(F)F)c1)Nc1ccc(Oc2ccnc(NC(=O)C3CC3)c2)c(F)c1 [Exe. 069] | 337 | 10.5 | 17.1 | – | –
10 | Cc1cc(Oc2cc(NC(=O)C3CC3)ncn2)ccc1NC(=O)Nc1ccc(F)c(C(C)(F)F)c1 [Exe. 071] | 100 | 20.5 | 13.3 | – | –
11 | Cc1cc(Oc2cc(NC(=O)C3CC3)ncn2)ccc1NC(=O)Nc1ccc(C)c(C(F)(F)F)c1 [Exe. 072] | 12 | 7 | 8.9 | – | –
12 | Cc1cc(Oc2cc(NC(=O)C3CC3)ncn2)ccc1NC(=O)Nc1cc(Cl)cc(C(F)(F)F)c1 [Exe. 075] | 420 | 20 | 13.1 | – | –
13 | Cc1cc(Oc2cc(NC(=O)C3CC3)ncn2)ccc1NC(=O)Nc1cc(NC2CCN(C)CC2)cc(C(F)(F)F)c1 [Exe. 076] | 83 | 5.6 | 12.5 | – | –
14 | Cc1cc(Oc2cc(NC(=O)C3CC3)ncn2)ccc1NC(=O)Nc1cc(N2CCCC2)cc(C(F)(F)F)c1 [Exe. 077] | 169 | 16.5 | 14.3 | – | –
15 | Cc1cc(Oc2cc(NC(=O)C3CC3)ncn2)ccc1NC(=O)Nc1ccc(NC2CCN(C)CC2)c(C(F)(F)F)c1 [Exe. 078] | 28 | 0.879 | 13.3 | – | –
16 | Cc1cc(Oc2cc(NC(=O)C3CC3)ncn2)ccc1NC(=O)Nc1cccc(OC(F)(F)F)c1 [Exe. 079] | 80 | 6 | 14 | – | –
17 | Cc1cc(Oc2cc(NC(=O)C3CC3)ncn2)ccc1NC(=O)Nc1cc(OC(F)(F)F)ccc1F [Exe. 080] | 29 | 3.04 | 8.1 | – | –
18 | Cc1cc(Oc2cc(NC(=O)C3CC3)ncn2)ccc1NC(=O)Nc1ccc(F)c(OC(F)(F)F)c1 [Exe. 081] | 104 | 16 | 13.3 | – | –
19 | Cc1cc(Oc2cc(NC(=O)C3CC3)ncn2)ccc1NC(=O)Nc1ccc(Cl)c(OC(F)(F)F)c1 [Exe. 082] | 36 | 22.5 | 6.8 | – | –
20 | Cc1cc(Oc2cc(NC(=O)C3CC3)ncn2)ccc1NC(=O)Nc1cc(F)cc(C(C)(F)F)c1 [Exe. 083] | 609 | 20.4 | 14.3 | – | –
21 | Cc1cc(Oc2cc(NC(=O)C3CC3)ncn2)ccc1NC(=O)Nc1cccc(C(C)(F)F)c1 [Exe. 084] | 122 | 5.86 | 12.2 | – | –
22 | Cc1cc(Oc2cc(NC(=O)C3CC3)ncn2)ccc1NC(=O)Nc1ccc(C#N)c(Cl)c1 [Exe. 086] | – | – | 8.3 | 226 | 19.3
23 | Cc1cc(Oc2cc(NC(=O)C3CC3)ncn2)ccc1NC(=O)Nc1cc(N2CCOCC2)cc(C(F)(F)F)c1 [Exe. 087] | 36 | 5.05 | 12.9 | – | –
24 | O=C(Nc1ccc(Oc2cc(NC(=O)C3CC3)ncn2)c(Cl)c1)Nc1ccc(F)c(C(F)(F)F)c1 [Exe. 088] | 106 | 2.05 | 11.4 | – | –
25 | O=C(Nc1ccc(F)c(C(F)(F)F)c1)Nc1ccc(Oc2cc(NC(=O)C3CC3)ncn2)cc1Cl [Exe. 089] | 19 | 6.87 | 15.2 | – | –
26 | O=C(Nc1cc(F)cc(C(F)(F)F)c1)Nc1ccc(Oc2cc(NC(=O)C3CC3)ncn2)cc1Cl [Exe. 090] | 42 | 2.8 | 12.2 | – | –
27 | Cc1cc(Oc2cc(NC(=O)C3CC3)ncn2)c(F)cc1NC(=O)Nc1ccc(Cl)c(C(C)(F)F)c1 [Exe. 091] | 53 | 7.6 | 12.8 | – | –
